From ChEMBL document CHEMBL4308841, “Synthesis, in vitro antiproliferative activity, and kinase inhibitory effects of pyrazole-containing diarylureas and diarylamides” (Eur J Med Chem, 2018)

Assays:
BT-549 = assay: Growth inhibition of human BT549 cells assessed as cell growth at 100 uM incubated for 48 hrs by sulforhodamine B assay relative to control; assay type: functional; conditions: BT-549, 48 h, read-out: Activity
SF-539 = assay: Growth inhibition of human SF539 cells incubated for 48 hrs by sulforhodamine B assay; assay type: functional, cell-based; conditions: SF-539, 48 h
ACHN = assay: Growth inhibition of human ACHN cells assessed as cell growth at 1 uM incubated for 48 hrs by sulforhodamine B assay relative to control; assay type: functional; conditions: read-out: Activity
RXF 393 = assay: Growth inhibition of human RXF393 cells incubated for 48 hrs by sulforhodamine B assay; assay type: functional, cell-based; conditions: RXF 393, 48 h
LOX IMVI = assay: Growth inhibition of human LOXIMVI cells assessed as cell growth at 1 uM incubated for 48 hrs by sulforhodamine B assay relative to control; assay type: functional; conditions: read-out: Activity
HT-29 [1] = assay: Growth inhibition of human HT-29 cells assessed as cell growth at 0.01 uM incubated for 48 hrs by sulforhodamine B assay relative to control; assay type: functional; conditions: HT-29, 48 h, read-out: Activity
NCI-H460 [2] = assay: Growth inhibition of human NCI-H460 cells assessed as cell growth at 0.01 uM incubated for 48 hrs by sulforhodamine B assay relative to control; assay type: functional; conditions: NCI-H460, 48 h, read-out: Activity
NCI-H226 [3] = assay: Growth inhibition of human NCI-H226 cells assessed as cell growth at 0.01 uM incubated for 48 hrs by sulforhodamine B assay relative to control; assay type: functional; conditions: NCI-H226, 48 h, read-out: Activity
OVCAR-5 [4] = assay: Growth inhibition of human OVCAR5 cells assessed as cell growth at 1 uM incubated for 48 hrs by sulforhodamine B assay relative to control; assay type: functional; conditions: OVCAR-5, 48 h, read-out: Activity
NCI-H226 [5] = assay: Growth inhibition of human NCI-H226 cells incubated for 48 hrs by sulforhodamine B assay; assay type: functional, cell-based; conditions: NCI-H226, 48 h
HT-29 [6] = assay: Growth inhibition of human HT-29 cells assessed as cell growth at 100 uM incubated for 48 hrs by sulforhodamine B assay relative to control; assay type: functional; conditions: HT-29, 48 h, read-out: Activity
NCI-H460 [7] = assay: Growth inhibition of human NCI-H460 cells assessed as cell growth at 100 uM incubated for 48 hrs by sulforhodamine B assay relative to control; assay type: functional; conditions: NCI-H460, 48 h, read-out: Activity
SK-MEL-28 = assay: Growth inhibition of human SK-MEL-28 cells assessed as cell growth at 100 uM incubated for 48 hrs by sulforhodamine B assay relative to control; assay type: functional; conditions: SK-MEL-28, 48 h, read-out: Activity
SNB-75 = assay: Growth inhibition of human SNB75 cells assessed as cell growth at 100 uM incubated for 48 hrs by sulforhodamine B assay relative to control; assay type: functional; conditions: SNB-75, 48 h, read-out: Activity
SK-OV-3 = assay: Growth inhibition of human SKOV3 cells incubated for 48 hrs by sulforhodamine B assay; assay type: functional, cell-based; conditions: SK-OV-3, 48 h
COLO 205 = assay: Growth inhibition of human COLO205 cells assessed as cell growth at 0.1 uM incubated for 48 hrs by sulforhodamine B assay relative to control; assay type: functional; conditions: COLO 205, 48 h, read-out: Activity
PC-3 = assay: Growth inhibition of human PC3 cells assessed as cell growth at 0.1 uM incubated for 48 hrs by sulforhodamine B assay relative to control; assay type: functional; conditions: PC-3, 48 h, read-out: Activity
NCI-H460 [8] = assay: Growth inhibition of human NCI-H460 cells incubated for 48 hrs by sulforhodamine B assay; assay type: functional, cell-based; conditions: NCI-H460, 48 h
OVCAR-5 [9] = assay: Growth inhibition of human OVCAR5 cells assessed as cell growth at 0.1 uM incubated for 48 hrs by sulforhodamine B assay relative to control; assay type: functional; conditions: OVCAR-5, 48 h, read-out: Activity
SW-620 = assay: Growth inhibition of human SW620 cells assessed as cell growth at 1 uM incubated for 48 hrs by sulforhodamine B assay relative to control; assay type: functional; conditions: SW-620, 48 h, read-out: Activity
UACC-62 = assay: Growth inhibition of human UACC62 cells assessed as cell growth at 100 uM incubated for 48 hrs by sulforhodamine B assay relative to control; assay type: functional; conditions: UACC-62, 48 h, read-out: Activity
RPMI-8226 = assay: Growth inhibition of human RPMI8226 cells assessed as cell growth at 0.01 uM incubated for 48 hrs by sulforhodamine B assay relative to control; assay type: functional; conditions: RPMI-8226, 48 h, read-out: Activity
NCI-H322M = assay: Growth inhibition of human NCI-H322M cells assessed as cell growth at 100 uM incubated for 48 hrs by sulforhodamine B assay relative to control; assay type: functional; conditions: read-out: Activity
U-251 = assay: Growth inhibition of human U251 cells incubated for 48 hrs by sulforhodamine B assay; assay type: functional, cell-based; conditions: U-251, 48 h
OVCAR-8 [10] = assay: Growth inhibition of human OVCAR8 cells assessed as cell growth at 100 uM incubated for 48 hrs by sulforhodamine B assay relative to control; assay type: functional; conditions: OVCAR-8, 48 h, read-out: Activity
MCF7 = assay: Growth inhibition of human MCF7 cells assessed as cell growth at 100 uM incubated for 48 hrs by sulforhodamine B assay relative to control; assay type: functional; conditions: MCF7, 48 h, read-out: Activity
HT-29 [11] = assay: Growth inhibition of human HT-29 cells assessed as cell growth at 0.1 uM incubated for 48 hrs by sulforhodamine B assay relative to control; assay type: functional; conditions: HT-29, 48 h, read-out: Activity
HCT-116 = assay: Growth inhibition of human HCT116 cells assessed as cell growth at 1 uM incubated for 48 hrs by sulforhodamine B assay relative to control; assay type: functional; conditions: HCT-116, 48 h, read-out: Activity
Malme-3M = assay: Growth inhibition of human MALME-3M cells assessed as cell growth at 1 uM incubated for 48 hrs by sulforhodamine B assay relative to control; assay type: functional; conditions: read-out: Activity
OVCAR-8 [12] = assay: Growth inhibition of human OVCAR8 cells assessed as cell growth at 0.01 uM incubated for 48 hrs by sulforhodamine B assay relative to control; assay type: functional; conditions: OVCAR-8, 48 h, read-out: Activity
[13] = read-out: LC50 (the source's name)
[14] = read-out: pLC50 (the source's name) (converted)

Question: `COc1cc(Cl)cc(-c2nn(-c3cccc(NC(=O)c4ccc(N5CCOCC5)c(C(F)(F)F)c4)c3)cc2-c2ccncc2)c1` was tested. Which growth at 100 µM (BT-549) did it give?
Answer: The growth at 100 µM was 49%.

Question: What about the GI50 (SF-539; read-out: GI50) of the same compound?
Answer: Its GI50 is 3.74 µM.

Question: And the CC50 (SF-539; [13])?
Answer: Its CC50 is over 100 µM.

Question: And the TGI (SF-539; read-out: TGI)?
Answer: Its TGI is over 100 µM.

Question: What about the GI50 (SF-539; read-out: pGI50 (converted)) of the same compound?
Answer: Its GI50 is 3.72 µM.

Question: What about the CC50 (SF-539; [14]) of the same compound?
Answer: The CC50 was over 100 µM.

Question: And the TGI (SF-539; read-out: pTGI (converted))?
Answer: The TGI was over 100 µM.

Question: What about the growth at 1 µM (ACHN) of the same compound?
Answer: The growth at 1 µM was 58%.

Question: And the LC50 (RXF 393)?
Answer: Its LC50 is over 100 µM.

Question: What about the GI50 (RXF 393; read-out: GI50) of the same compound?
Answer: The GI50 was 0.83 µM.

Question: What about the TGI (RXF 393; read-out: TGI) of the same compound?
Answer: The TGI was 23.9 µM.

Question: And the GI50 (RXF 393; read-out: pGI50 (converted))?
Answer: The GI50 was 0.813 µM.

Question: And the TGI (RXF 393; read-out: pTGI (converted))?
Answer: Its TGI is 24 µM.

Question: And the growth at 1 µM (LOX IMVI)?
Answer: Its growth at 1 µM is 95%.

Question: What about the growth at 0.01 µM (HT-29 [1]) of the same compound?
Answer: Its growth at 0.01 µM is 100%.

Question: And the growth at 0.01 µM (NCI-H460 [2])?
Answer: Its growth at 0.01 µM is 102%.

Question: What about the growth at 0.01 µM (NCI-H226 [3]) of the same compound?
Answer: The growth at 0.01 µM was 94%.

Question: What about the growth at 1 µM (OVCAR-5 [4]) of the same compound?
Answer: The growth at 1 µM was 75%.

Question: And the GI50 (NCI-H226 [5]; read-out: GI50)?
Answer: Its GI50 is 9.34 µM.

Question: What about the LC50 (NCI-H226 [5]; read-out: LC50) of the same compound?
Answer: Its LC50 is over 100 µM.

Question: And the TGI (NCI-H226 [5]; read-out: TGI)?
Answer: Its TGI is over 100 µM.

Question: And the GI50 (NCI-H226 [5]; read-out: pGI50 (converted))?
Answer: The GI50 was 93.3 µM.

Question: And the LC50 (NCI-H226 [5]; read-out: pLC50 (converted))?
Answer: The LC50 was over 100 µM.

Question: And the TGI (NCI-H226 [5]; read-out: pTGI (converted))?
Answer: Its TGI is over 100 µM.

Question: And the growth at 100 µM (HT-29 [6])?
Answer: The growth at 100 µM was -17%.

Question: What about the growth at 100 µM (NCI-H460 [7]) of the same compound?
Answer: The growth at 100 µM was 5%.

Question: And the growth at 100 µM (SK-MEL-28)?
Answer: The growth at 100 µM was 19%.

Question: What about the growth at 100 µM (SNB-75) of the same compound?
Answer: The growth at 100 µM was 18%.

Question: What about the GI50 (SK-OV-3; read-out: GI50) of the same compound?
Answer: The GI50 was over 100 µM.

Question: What about the CC50 (SK-OV-3; [13]) of the same compound?
Answer: Its CC50 is over 100 µM.

Question: And the TGI (SK-OV-3; read-out: TGI)?
Answer: Its TGI is over 100 µM.

Question: And the GI50 (SK-OV-3; read-out: pGI50 (converted))?
Answer: The GI50 was over 100 µM.

Question: What about the CC50 (SK-OV-3; [14]) of the same compound?
Answer: The CC50 was over 100 µM.

Question: And the TGI (SK-OV-3; read-out: pTGI (converted))?
Answer: Its TGI is over 100 µM.

Question: And the growth at 0.1 µM (COLO 205)?
Answer: Its growth at 0.1 µM is 100%.

Question: What about the growth at 0.1 µM (PC-3) of the same compound?
Answer: The growth at 0.1 µM was 95%.

Question: What about the GI50 (NCI-H460 [8]; read-out: GI50) of the same compound?
Answer: The GI50 was 4.79 µM.

Question: What about the CC50 (NCI-H460 [8]; [13]) of the same compound?
Answer: Its CC50 is over 100 µM.

Question: And the TGI (NCI-H460 [8]; read-out: TGI)?
Answer: The TGI was over 100 µM.

Question: What about the GI50 (NCI-H460 [8]; read-out: pGI50 (converted)) of the same compound?
Answer: Its GI50 is 4.79 µM.

Question: What about the CC50 (NCI-H460 [8]; [14]) of the same compound?
Answer: The CC50 was over 100 µM.

Question: What about the TGI (NCI-H460 [8]; read-out: pTGI (converted)) of the same compound?
Answer: Its TGI is over 100 µM.

Question: And the growth at 0.1 µM (OVCAR-5 [9])?
Answer: The growth at 0.1 µM was 78%.

Question: What about the growth at 1 µM (SW-620) of the same compound?
Answer: Its growth at 1 µM is 103%.

Question: And the growth at 100 µM (UACC-62)?
Answer: The growth at 100 µM was 10%.

Question: And the growth at 0.01 µM (RPMI-8226)?
Answer: Its growth at 0.01 µM is 99%.

Question: And the growth at 100 µM (NCI-H322M)?
Answer: The growth at 100 µM was 48%.

Question: And the IC50 (U-251)?
Answer: Its IC50 is 5.03 µM.

Question: What about the GI50 (U-251; read-out: GI50) of the same compound?
Answer: Its GI50 is 5.03 µM.

Question: And the CC50 (U-251; [13])?
Answer: The CC50 was over 100 µM.

Question: What about the TGI (U-251; read-out: TGI) of the same compound?
Answer: Its TGI is over 100 µM.

Question: And the GI50 (U-251; read-out: pGI50 (converted))?
Answer: The GI50 was 5.01 µM.

Question: And the CC50 (U-251; [14])?
Answer: The CC50 was over 100 µM.

Question: And the TGI (U-251; read-out: pTGI (converted))?
Answer: The TGI was over 100 µM.

Question: What about the growth at 100 µM (OVCAR-8 [10]) of the same compound?
Answer: Its growth at 100 µM is 32%.

Question: What about the growth at 100 µM (MCF7) of the same compound?
Answer: Its growth at 100 µM is 23%.

Question: And the growth at 0.1 µM (HT-29 [11])?
Answer: Its growth at 0.1 µM is 93%.

Question: And the growth at 1 µM (HCT-116)?
Answer: The growth at 1 µM was 90%.

Question: What about the growth at 1 µM (Malme-3M) of the same compound?
Answer: Its growth at 1 µM is 58%.

Question: What about the growth at 0.01 µM (OVCAR-8 [12]) of the same compound?
Answer: Its growth at 0.01 µM is 99%.
